# Assay results reported in patent US10258599B2, “Compounds for use in the prevention or treatment of cancer” (SEMMELWEIS UNIVERSITY, priority 2014, dated 2019).
# Where a name gives a salt, the structure may show the parent alone.
# How the values were obtained:
# isolated rat brain stem [1] = test: Release of labelled transmitter from isolated rat brain stem to electrical stimulation
# Description: After a single washout the neurons work immediately on their normal activity level again. Since neurons respond to stimulation in an “all or none” manner, it is obvious that only a part of the neuronal population (the most excitable ones) respond to the electrical stimulation.
# This measurement can be made, mutatis mutandis, analogously to the measurement described in example 2 of EP1052259B1 (corresponding to WO2000026204A1). The method is described in [Knoll J, Knoll B and Miklya I Life Sci, 58, 2101-2114 (1996)].
# In short the brain stem (average weight about 800 mg) is isolated from rats and soaked in oxygenated Krebs' solution. Then solution of labelled neurotransmitter the release of which is measured is added to the preparation and allowed for uptake in an appropriate environment. If needed, MAO activity is inhibited.
# After uptake of the monoamine the brain stem is fixed in appropriate organ bath and washed in appropriate solution facilitating uptake and preventing metabolization of the monoamine.
# Fractionation of the perfusate is carried out periodically and, if the monoamine is radiolabelled, fractions are combined with a scintillation liquid.
# The organ is perfused with the buffer containing the compound(s) of the invention for sufficient time before electrostimulation.
# The brain stem is stimulated with rectangular pulses (e.g. 3 Hz, 1 ms 60 V) e.g. for 3 min. At the beginning of the experiment, the several, e.g. three resting periods of fraction were proceeded prior to the first stimulation. Thereafter it is allotted several, e.g. seven resting periods of fraction between stimulation.
# [2] = tested on: catecholaminergic neurons in the brain stem; conditions: 1 mg/kg s.c.; cited from earlier work
# [3] = tested on: male Wistar rats (Charles River); test: Longevity study: survival of rats treated 3 times a week s.c.; assay type: in vivo, rat
# Method: Experiments were carried out on male Wistar rats (Charles River) weighing 250-350 g received from the breeding colony of Semmelweis University. The animals were kept in a 12-hour light-dark cycle and under condition of controlled temperature (22±2° C.) and relative humidity (55±5%). Room temperature and relative humidity was checked daily. The rats were maintained on standard laboratory chow and tap water ad libitum. All procedures conformed to the European Convention for the protection of vertebrate animals used for experimental and other scientific purposes. The study was approved by the Animal Ethics Committee of Semmelweis University, Budapest (permission number: 1810/003/2004)
# (§1) The longevity study was performed on 200 male rats received from the breeding colony of the Semmelweis University. The rats were born at the end of February of 2010. After 2-month acclimation period the rats were divided randomly into 5 even groups. The longevity study started at the beginning of May 2010. Animals were observed until their natural deaths. The data in this study represent the changes observed until Oct. 31, 2012, since in the saline-treated group the last animal died on Oct. 31, 2012. As will be shown later a few rats in the enhancer-treated groups were still alive on Nov. 1, 2012.
# (§2) During the longevity study 5 rats were housed together in polycarbonate cages (height: 18 cm; wide: 42 cm; length: 44 cm) with a stainless steel on the top. Cage bedding was renewed 3 times a week (Monday, Wednesday and Friday). Bodyweight was measured once every month. The treatment started at the end of the second month of their age.
# To avoid the mixing of the groups and individuals, saline-treated rats were signed blue from 1 to 40; D-treated rats were signed green from 1 to 80 (1-40: rats treated with 0.1 mg/kg and 41-80: rats treated with 0.001 mg/kg); B-treated rats were signed black from 1 to 80 (1-40: rats treated with 0.05 mg/kg and 41-80: rats treated with 0.0001 mg/kg).
# (§3) Significance in the performance between the groups in the shuttle box was evaluated by multi-factor analysis of variance (ANOVA). Significance regarding the span of time from tumor manifestation until death in rats and regarding aging related changes in bodyweight treated chronically with the enhancer substances was analyzed by One-way ANOVA. Statistical analysis of survival rate and tumor manifestation was performed by the Kaplan-Meier method.
# [4] = tested on: catecholaminergic neurons; test: Shuttle box: antagonism of tetrabenazine-induced learning deficit (conditioned avoidance reflex); assay type: in vivo, rat
# Method: In a modified version of the shuttle box the acquisition of a two-way conditioned avoidance reflex (CAR) was analyzed during 5 consecutive days. The rat was put in a box divided inside into two parts by a barrier with a small gate in the middle, and the animal was trained to cross the barrier under the influence of a conditioned stimulus (CS, light flash). […] One trial consisted of 10 s intertrial interval, followed by 20 s CS. The last 5 s of CS overlaped the 5 s US. At each learning session, the number of CARs, EFs and intersignal reactions (IRs) are automatically counted and evaluated by multi-way ANOVA.
# Tetrabenazine-treatment (1 mg/kg s.c.) depletes at least 90% of norepinephrine and dopamine from their stores in the nerve terminals of the catecholaminergic neurons in the brain stem. Due to the weak performance of the catecholaminergic brain engine, the activation of the cortical neurons remains below the level required for the acquisition of a CAR. The learning deficit caused by tetrabenazine-treatment can be antagonized by the administration of a synthetic CAE substance or an A-type MAO inhibitor, whereas selective inhibition of B-type MAO or inhibition of the reuptake of catecholamines and/or serotonin is ineffective (Knoll et al., 1992).
# fibromyxosarcoma = test: Longevity study: manifestation of subcutaneous fibromyxosarcoma (TMS effect); assay type: in vivo, rat; conditions: for tumor manifestation suppressing (TMS) effect versus saline: Kaplan-Meier
# Method: as §1, §2
# We carefully observed the appearance of the subcutaneous tumor and followed the development of the tumor until death. Histological analysis was performed post mortem on several rats taken from each group as examples.
# The subcutaneous tumors developed in the rats were measured by the two largest diameters. After sacrificing the animals, the tumors were removed, photographs were taken. Tissues were fixed immediately after removal in 10% neutral formalin (in PBS, pH7.0) for 24 hours at room temperature, dehydrated and embedded in paraffin. 3-4 micrometer thick sections were cut and stained by hematoxylin and eosin (HE) as a routine.
# as §3
# Daoy HTB-186 cell line = test: MTT proliferation assay, Daoy medulloblastoma cells; assay type: cell-based, human; conditions: monotherapy, nine concentrations 10^-14 to 10^-6 M, 72 hours
# Method: (§4) Human medulloblastoma cell line, Daoy was purchased from ATCCC, UW-228 was obtained from the courtesy of Professor Silber (Univerity of Washington, Seattle, Wash., USA).
# (§5) Daoy and UW-228-2 cell lines were maintained in culture medium (each 500 ml Minimum Essential Medium Eagle, Alpha Modification (M8042, Sigma, St Louis, USA) with 50 ml FCS (Gibco), 40 mg Gentamicin (Sandoz), 5 ml sodium-pyruvate (S8636, Sigma, St Louis, USA), 5 ml non-essential-amino acid solution (M7145, Sigma, St Louis, USA), 10 ml L-glutamin (Sigma, St Louis, USA) at 37° C. in humified 5% CO2.
# (§6) In each well 3×10^3 Daoy or UW-228-2 cells were seeded in 96-well plates (Sarstedt), solved in 100 μl of its own medium with 10% FCS. 24 hours after seeding, cells were treated for 72 hours by drugs solved in further 100 μl medium. First, both cell lines were treated by (−)-BPAP and (−)-deprenil in monotherapy to determine its dose-effect curves in concentration of 10^−6, 10^−7, 10^−8, 10^−9, […], 10^−11, 10^−12, 10^−13 and 10^−14 M. In combined treatment 10^−3, 3.3×10^−4, […] and 3.7×10^−5 M of temozolomide (Schering Plough, USA) or 0.04, 0.2, 1, 5 μM of Cisplatin (Ebewe Pharma, Austria) or 0.04, 0.2, 1, 5 μM of etoposide (Ebewe Pharma, Austria) or 10^−7, 10^−6, 10^−5 and 10^−4 μM (UW228-2) or 0.001, 0.005, 0.025 and 0.125 μM (Daoy) of Vincristin (Richter Gedeon, Hungary) were applied in monotherapy or combined with 10^−13 or 10^−8 M of (−)-BPAP or (−)-deprenil.
# (§7) Cell proliferation was evaluated by MTT (3-(4,5-Dimethylthiazol-2-yl)-2,5-diphenyltetrazolium bromide) assay (M5655, Sigma) after 72-hour treatment by the method described in manufacturer's protocol.
# UW-228-2 cell line = test: MTT proliferation assay, UW-228-2 medulloblastoma cells; assay type: cell-based, human; conditions: UW-228-2, monotherapy, nine concentrations 10^-14 to 10^-6 M, 72 hours
# Method: as §4, §5, §6, §7
# lung carcinoma = test: Longevity study on FVB/N mice: spontaneous lung carcinoma at autopsy; assay type: in vivo, mouse; conditions: 18-month
# Method: Body weight is measured bimonthly.
# For monitoring, we planned to sacrifice mice from each group at 6-month, 1-year, 1.5-year and 2-year time-points; the rest of the animals are kept until spontaneous death.
# The results are shown in Table 4 and on FIGS. 19 and 20. Significance levels were calculated with two-sided Chi-square test.
# [5] = tested on: Wistar-Logan strain of rats; conditions: cited from earlier work
# isolated rat brain stem [6] = conditions: optimal concentration for the specific enhancer effect, 3-min collection period; review Knoll, 2005; cited from earlier work
# [7] = shuttle box, 1 mg/kg tetrabenazine s.c.
smiles,measurement,setting,value
C#CCN(C)CCCOc1ccc(Cl)cc1Cl [clorgyline],release of [3H]-SER to electrical stimulation,isolated rat brain stem [1]; 250 ng/ml,None of these compounds enhanced the release
NCCNC(=O)c1ccc(Cl)cn1 [lazabemide],release of [3H]-SER to electrical stimulation,isolated rat brain stem [1]; 250 ng/ml,None of these compounds enhanced the release
"COc1cc2c(cc1OC)C1CC(=O)C(CC(C)C)CN1CC2 (centres unmarked) [Tetrabenazine, Tetrabenazine HCl]",depletion of norepinephrine and dopamine from their stores in the nerve terminals,[2],at least 90%
"C#CCN(C)[C@H](C)Cc1ccccc1 [(−)-Deprenyl, (R)—N-methyl-N-(1-phenylpropan-2-yl)prop-2-yn-1-amine, reference compound]",month of age in which the first animal died,"[3]; 0.001 mg/kg s.c. 3 times a week, N=40",13 month
same,rats remained alive to the end of the 32nd month,"[3]; 0.001 mg/kg, N=40",none
same,month of age in which the first animal died,"[3]; 0.1 mg/kg s.c. 3 times a week, N=40",11 month
same,lifespan compared with saline-treated peers,[3]; both doses of the longevity study (FIGS. 5-8),did not prolong the lifespan of rats significantly
same,dose-effect-relation of the enhancer effect,[4]; shuttle box (FIG. 3),"bi-modal, bell-shaped"
same,optimal dose that exerted the specific enhancer effect,[4]; [7],0.001 mg/kg
same,very high dose range effective in antagonizing the tetrabenazine-induced learning deficit (MAO-A inhibition),[4]; [7],5 to 10 mg/kg
same,tumor manifestation suppressing (TMS) effect versus saline,fibromyxosarcoma; 0.001 mg/kg,not significant
same,month of age in which the first animal manifested the tumor,"fibromyxosarcoma; 0.001 mg/kg, N=40",12 month
same,rats in the group manifested the tumor to the end of the 32nd month,"fibromyxosarcoma; 0.001 mg/kg, N=40",15 rats
same,tumor manifestation suppressing (TMS) effect versus saline,"fibromyxosarcoma; 0.1 mg/kg, P<0.01, listed as (−)-deprenyl",significantly decreased
same,tumor manifestation suppressing (TMS) effect versus saline,"fibromyxosarcoma; 0.1 mg/kg, P<0.01, listed as Deprenyl",suppressed the manifestation of the fibromyxosarcoma significantly
same,month of age in which the first animal manifested the tumor,"fibromyxosarcoma; 0.1 mg/kg, N=40",16 month
same,rats in the group manifested the tumor to the end of the 32nd month,"fibromyxosarcoma; 0.1 mg/kg, N=40",11 rats
same,rats manifested the tumor when the group completed the 30th month of life,"fibromyxosarcoma; 0.1 mg/kg, N=40",11 rats
same,span of time from tumor manifestation until death,"fibromyxosarcoma; chronic treatment, versus saline (FIG. 13), One-way ANOVA",no significant difference
same,proliferation of cultured medulloblastoma cells,Daoy HTB-186 cell line; listed as (−)-deprenyl,did not inhibit the proliferation
same,proliferation of cultured medulloblastoma cells,Daoy HTB-186 cell line; listed as Deprenyl,none of the applied concentrations did Deprenyl or BPAP influence the proliferation
same,proliferation of cultured medulloblastoma cells,UW-228-2 cell line; listed as (−)-deprenyl,did not inhibit the proliferation
same,proliferation of cultured medulloblastoma cells,UW-228-2 cell line; listed as Deprenyl,none of the applied concentrations did Deprenyl or BPAP influence the proliferation
same,Number of detected lung carcinoma,"lung carcinoma; 0.001 mg/kg daily, 2 dissected mice",0
same,Number of detected lung carcinoma,"lung carcinoma; 0.1 mg/kg daily, 4 dissected mice",1
same,rats that lived longer than the maximum lifespan ever observed in the strain,"[5]; HP rats, out of 50",17 rats
same,lifespan versus saline treated peers,"[5]; sexually lowest performing (LP) rats, n=49",lived significantly longer than their saline treated peers
same,"released amount of labeled transmitter ([3H]-norepinephrine, [3H]-dopamine or [3H]-serotonin)",isolated rat brain stem [6],significantly higher
CNCCC(Oc1ccc(C(F)(F)F)cc1)c1ccccc1 (centres unmarked) [fluoxetine],release of [3H]-SER to electrical stimulation,isolated rat brain stem [1]; 50 ng/ml,None of these compounds enhanced the release
